Values of other authors as cited in patent US20110053172A1, “ONE STEP NANOSENSOR FOR SINGLE AND MULTIDRUG RESISTANCE IN ACUTE CORONARY SYNDROME (ACS)” (UNIVERSITY OF CALCUTTA, priority 2009, published 2011).

Conditions: in comparison to aspirin; P=0.043

COC(=O)[C@H](c1ccccc1Cl)N1CCc2sccc2C1 [clopidogrel]
relative risk reduction in stroke, myocardial infarction, or ischaemic death: 8.7%
